Among the data in US4507487A, “Chemical compounds” (Bristol-Myers Company, priority 1983, dated 1985) are MIC values, retold here.

In brackets after ≈: the same amount, converted by molar mass.

What all share (type): cell-based
In assay [1] the test system is Penicillinsensitive S. aureus. Nature of the assay: MIC, two-fold serial agar dilution in Mueller-Hinton agar, group (G+)-Ia. The note with it: Staphylococcus aureus; (G+)-Ia, penicillin-sensitive S. aureus (5 strains); read-out: Geometric Mean of MIC. The method, then: (§1) In the primary evaluation of the compounds of this invention, the Minimum Inhibitory Concentrations (MIC's) of the compounds were determined by the two-fold serial agar dilution method in Mueller-Hinton agar against 32 strains of test organisms in six groups.

The test system of assay [2] is Penicillinresistant S. aureus. Description: MIC, two-fold serial agar dilution in Mueller-Hinton agar, group (G+)-Ib. As to conditions: Staphylococcus aureus, read-out: Geometric Mean of MIC. The protocol: as §1
(G+)Ib: Penicillinresistant S. aureus (5 strains)
In general terms: Agar dilution tests growth on a series of plates holding different concentrations.

For assay [3], the system named is Cephalothinsensitive E. coli, Kl. pneumoniae and Pr. mirabilis. Nature of the assay: MIC, two-fold serial agar dilution in Mueller-Hinton agar, group (G-)-Ia. As to conditions: (G-)-Ia, cephalothin-sensitive E. coli (2), Kl. pneumoniae (1), Pr. mirabilis (2 strains); read-out: Geometric Mean of MIC. The method, then: as §1
(G-)Ia: Cephalothinsensitive E. coli (2 strains), Kl. pneumoniae (1
strain) and Pr. mirabilis (2 strains)

Assay [4] relates to Cephalothinresistant E. coli and Kl. pneumoniae. Description: MIC, two-fold serial agar dilution in Mueller-Hinton agar, group (G-)-Ib. As to conditions: read-out: Geometric Mean of MIC. The method, then: as §1
(G-)Ib: Cephalothinresistant E. coli (3 strains) and Kl. pneumoniae (3

The subject of assay [5] is M. morganii, Ent. cloacae and Ser. marcescens. Nature of the assay: MIC, two-fold serial agar dilution in Mueller-Hinton agar, group (G-)-II. The note with it: read-out: Geometric Mean of MIC. The method, then: as §1
(G-)II: M. morganii (1 strain), Ent. cloacae (2 strains) and Ser.

Another assay concerns Ps. aeruginosa. Nature of the assay: MIC, two-fold serial agar dilution in Mueller-Hinton agar, group (G-)-III. The note with it: Pseudomonas aeruginosa, Ps. aeruginosa (6 strains), read-out: Geometric Mean of MIC. The method, then:
as §1

In another assay the test system is E. coli A15164. Nature of the assay: MIC against specific test organism. As to conditions: Escherichia coli; E. coli A15164, cephalothin-resistant strain; read-out: Minimum Inhibitory Concentration. The protocol: as §1
(§2) The test method was as described for Table 1.

The test system of the next assay is E. coli Juhl. Description: MIC against specific test organism. As to conditions: Escherichia coli, read-out: Minimum Inhibitory Concentration. The method, then: as §1, §2
A further assay deals with Ent. cloacae A9656. Nature of the assay: MIC against specific test organism. As to conditions: Enterobacter cloacae, read-out: Minimum Inhibitory Concentration. The protocol:
as §1, §2

Another assay concerns K. pneumoniae A9867. Description: MIC against specific test organism. The note with it: Klebsiella pneumoniae; K. pneumoniae A9867, cephalothin-resistant strain; read-out: Minimum Inhibitory Concentration. The protocol: as §1, §2
Another assay relates to K. pneumoniae D11. Nature of the assay: MIC against specific test organism. As to conditions: Klebsiella pneumoniae, read-out: Minimum Inhibitory Concentration. The protocol: as §1, §2
A further assay relates to M. morganii A9553. Description: MIC against specific test organism. The note with it: Morganella morganii, read-out: Minimum Inhibitory Concentration. The protocol:
as §1, §2

For another assay, the system named is Pr. mirabilis A9554. Nature of the assay: MIC against specific test organism. As to conditions: Proteus mirabilis, read-out: Minimum Inhibitory Concentration. The protocol:
as §1, §2

A further assay relates to Ps. aeruginosa A15150. Nature of the assay: MIC against specific test organism. As to conditions: Pseudomonas aeruginosa, read-out: Minimum Inhibitory Concentration. The protocol:
as §1, §2

The test system of another assay is Ps. aeruginosa A20717. Description: MIC against specific test organism. As to conditions: Pseudomonas aeruginosa, read-out: Minimum Inhibitory Concentration. The protocol:
as §1, §2

The subject of the next assay is Ps. aeruginosa A9843. Description: MIC against specific test organism. The note with it: Pseudomonas aeruginosa, read-out: Minimum Inhibitory Concentration. The protocol:
as §1, §2

The next assay deals with S. aureus BX-1633-2. Description: MIC against specific test organism. The note with it: Staphylococcus aureus, BX16332; S. aureus BX-1633-2, penicillin-resistant strain; read-out: Minimum Inhibitory Concentration. The protocol:
as §1, §2

In a further assay the test system is S. aureus Smith. Description: MIC against specific test organism. The note with it: Staphylococcus aureus, read-out: Minimum Inhibitory Concentration. The method, then: as §1, §2
The test system of another assay is Ser. marcescens A20019. Description: MIC against specific test organism. The note with it: Serratia marcescens, read-out: Minimum Inhibitory Concentration. The method, then: as §1, §2

In the case of `CCO/N=C(\C(=O)NC1C(=O)N2C(C(=O)[O-])=C(C[n+]3ccsc3SC)CS[C@H]12)c1csc(N)n1` (stereo partly shown) [Example 4, 7-[(Z)-2-(2-Aminothiazol-4-yl)-2-(ethoxyimino)acetamido]-3-(2-methylthiothiazolio)methyl-3-cephem-4-carboxylate], the MIC in assay [1] turned out to be 0.35 µg/mL (≈ 0.647 µM); in assay [2], 0.61 µg/mL (≈ 1.13 µM); in assay [3] it was 0.076 µg/mL (≈ 0.141 µM); in assay [4], 0.32 µg/mL (≈ 0.592 µM); in assay [5], 0.69 µg/mL (≈ 1.28 µM); in the assay with Ps. aeruginosa it was 5.6 µg/mL (≈ 10.4 µM). In addition, the MIC in the assay on E. coli A15164 came to 0.2 µg/mL (≈ 0.37 µM); in the assay with E. coli Juhl, 0.1 µg/mL (≈ 0.185 µM); in the assay on Ent. cloacae A9656, 0.2 µg/mL (≈ 0.37 µM); in the assay with K. pneumoniae A9867 it was 1.6 µg/mL (≈ 2.96 µM); in the assay on K. pneumoniae D11, 0.1 µg/mL (≈ 0.185 µM); in the assay on M. morganii A9553, 0.4 µg/mL (≈ 0.74 µM). Also, the MIC was determined as 0.2 µg/mL (≈ 0.37 µM) with Pr. mirabilis A9554; 3.1 µg/mL (≈ 5.73 µM) in the assay with Ps. aeruginosa A15150; 12.5 µg/mL (≈ 23.1 µM) with Ps. aeruginosa A20717; 12.5 µg/mL (≈ 23.1 µM) with Ps. aeruginosa A9843; 0.4 µg/mL (≈ 0.74 µM) with S. aureus BX-1633-2; 0.4 µg/mL (≈ 0.74 µM) in the assay with S. aureus Smith. In the assay on Ser. marcescens A20019, the MIC stood at 0.1 µg/mL (≈ 0.185 µM).
